The values that follow come from ChEMBL document CHEMBL4414657, “Psiguadiols A-J, Rearranged Meroterpenoids as Potent PTP1B Inhibitors from Psidium guajava” (J Nat Prod, 2019).

The target of assay [1] is T1, Tyrosine-protein phosphatase non-receptor type 1 (Homo sapiens) (UniProt P18031).
T1 sequence (whole entry): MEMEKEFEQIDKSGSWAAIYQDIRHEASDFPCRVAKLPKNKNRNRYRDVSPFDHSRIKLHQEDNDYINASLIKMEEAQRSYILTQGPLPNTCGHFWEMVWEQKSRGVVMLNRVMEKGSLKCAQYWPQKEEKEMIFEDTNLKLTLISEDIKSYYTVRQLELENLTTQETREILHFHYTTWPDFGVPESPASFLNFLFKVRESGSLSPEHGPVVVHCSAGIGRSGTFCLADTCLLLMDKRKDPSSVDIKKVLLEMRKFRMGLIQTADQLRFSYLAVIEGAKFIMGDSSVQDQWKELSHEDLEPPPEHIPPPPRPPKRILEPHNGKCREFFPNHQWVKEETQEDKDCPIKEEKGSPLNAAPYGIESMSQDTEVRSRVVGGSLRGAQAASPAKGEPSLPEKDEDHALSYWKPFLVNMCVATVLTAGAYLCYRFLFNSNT
The assay can be described thus: Inhibition of PTP1B (unknown origin) at 20 ug/ml using pNPP as substrate incubated for 30 mins by ELISA relative to control. On the technique in general: In an ELISA, binding on a coated surface is turned into a signal by an enzyme label.

Assay [2] concerns the target T2, Tyrosine-protein phosphatase non-receptor type 1 (Homo sapiens, UniProt P18031).
T2 sequence (P18031 whole entry): T1 sequence (whole entry)
The assay can be described thus: Inhibition of PTP1B (unknown origin) using pNPP as substrate incubated for 30 mins by ELISA.

On to `C=C1CC[C@@H]2[C@H](CC2(C)C)[C@@]2(CC[C@@H]1O)C[C@H](c1ccccc1)c1c(O)c(C=O)c(O)c(C=O)c1O2`, for which the inhibition (commonly the change of the read-out against control, counted positive when it falls) in assay [1] was greater than 96%. For the same compound, in assay [2], the IC50 – broadly, the point on the concentration scale where inhibition reaches its midpoint – worked out at 11 µM.
The compound `CC(C)[C@@H]1CC[C@@H](C)[C@H]2C[C@]34O[C@H]([C@@]21O)[C@@]3(C)Oc1c(C=O)c(O)c(C=O)c(O)c1[C@H]4c1ccccc1` gave an inhibition in assay [1] greater than 96%. In assay [2], the 50% inhibitory concentration (IC50) was determined as 19.1 µM.
For `CC(C)[C@@H]1CC[C@@H](C)[C@]2(O)C[C@@H]3[C@H](c4ccccc4)c4c(O)c(C=O)c(O)c(C=O)c4O[C@]3(C)C=C12`, in that order: greater than 96% and 18.9 µM.
For `C/C1=C/C[C@@H]2[C@H](CC2(C)C)[C@@]2(CC[C@H]1O)C[C@H](c1ccccc1)c1c(O)c(C=O)c(O)c(C=O)c1O2`, in that order: greater than 96% and 11.9 µM.
For `CC(C)[C@@H]1CC[C@@H](C)[C@H]2C[C@@]3(O)[C@H](c4ccccc4)c4c(O)c(C=O)c(O)c(C=O)c4O[C@]3(C)C=C12`, the inhibition in assay [1] is greater than 96%. Moreover, in assay [2], half-maximal inhibition (IC50) required 6.2 µM.
The matching figures for `C=C1CC[C@@H]2[C@H]([C@@H]3Oc4c(C=O)c(O)c(C=O)c(O)c4[C@H](c4ccccc4)[C@@]3(C)CC[C@@H]1O)C2(C)C`: greater than 96% and 22.8 µM.
For `C=C1CC[C@@H]2[C@H](CC2(C)C)[C@@]2(CC[C@H]1O)C[C@H](c1ccccc1)c1c(O)c(C=O)c(O)c(C=O)c1O2`, in that order: greater than 96% and 4.7 µM.
The matching figures for `C=C1CC[C@@H]2[C@H]([C@@H]3Oc4c(C=O)c(O)c(C=O)c(O)c4[C@H](c4ccccc4)[C@@]3(C)CC[C@H]1O)C2(C)C`: greater than 96% and 22.8 µM.
On to `C/C1=C/C[C@@H]2[C@H]([C@@H]3Oc4c(C=O)c(O)c(C=O)c(O)c4[C@H](c4ccccc4)[C@@]3(C)CC[C@@H]1O)C2(C)C`, for which the inhibition in assay [1] was greater than 96%. Besides, the IC50 in assay [2] is 9.2 µM.
As to `CC(C)[C@@H]1CC[C@@H](C)[C@]23C[C@@H]4[C@H](c5ccccc5)c5c(O)c(C=O)c(O)c(C=O)c5O[C@]4(C)[C@@H](O)[C@]12O3`, in assay [1], the inhibition is greater than 96%. The compound further gave an IC50 in assay [2] of 10.7 µM.
